Results from patent US4769383A, “Dioxonaphthotriazoles having antiallergic activity” (Beecham Group p.l.c., priority 1981, dated 1988).

Columns and labels:
[1] = tested on: rat passive peritoneal anaphylaxis; test: Rat Passive Peritoneal Anaphylaxis (PPA); format: in vivo; settings: Mean ± SEM, 5-7 rats per group; for Dye concentration in peritoneal fluid as % of mean of controls: Pontamine Sky Blue
Description: (§1) The compounds were tested for their ability to:
(a) inhibit rat passive peritoneal anaphylaxis; and
(§2) Charles River Sprague Dawley male rats of 250-300 g. and Dunkin Hartley male white guinea pigs of 250-300 g. were used.
The method has been described previously. (Ross, Janet W., Smith, H. and Spicer, Barbara A. Increased vascular permeability during passive peritoneal anaphylaxis in the rat. Int. Arch. Allergy appl. Immun., 51, 226, 1976).
Rats were sensitised by giving an intraperitoneal injection of 0.5 ml of Bordetella pertussis vaccine (4×10^10 organisms/ml Burroughs Wellcome, London) and a subcutaneous injection of 0.5 ml of an emulsion of 100 mg of ovalbumin (chicken egg albumin, crystallised and lyophilised, grade 3, Sigma, London) in 2 ml of isotonic saline and 3 ml of Freud's incomplete adjuvant (Difco Laboratories, Michigan, USA).
The rats were bled by cardiac puncture, on day 18, the blood was pooled, and the serum separated, stored at -20° C. and thawed only before use.
Rats were each given an intraperitoneal injection of 2 ml of a 1:5 dilution of the rat anti-serum in isotonic saline. Two hours later 0.3 ml of a 5% solution of Pontamine Sky Blue (Raymond A. Lamb, London) in isotonic saline was injected intravenously, followed by an intraperitoneal injection of the test compound in 1 ml of saline; (control rats received 1 ml of saline); followed 30 seconds later by an intraperitoneal injection of 5 ml of Tyrode's solution containing 50 μg/ml heparin and 0.4 mg/ml of ovalbumin. The concentrations of the compounds were quoted as those in the 6 ml of fluid injected intraperitoneally. Exactly five minutes after challenge the rats were stunned and bled and their peritoneal fluids were collected by opening their peritoneal cavities over funnels into polycarbonate tubes in ice. The supernatants were separated from the cellular residue by centrifuging at 150 g. for five minutes and were retained for assay of dye and histamine. Any samples obviously contaminated with blood were not used for estimation of dye. Groups of at least five rats were used for each dose of compound and the treatments were randomised.
Dye was assayed within two hours by measurement of optical density (OD) at 625 nm.
For histamine assay 0.5 ml samples of the supernatants were added to 1 ml volumes of 12% trichloracetic acid and stored at -20° C. The deproteinised samples were assayed using an automated spectrofluorimetric system (Technicon Autoanalyser) by a method similar to that of Evans, D. P., Lewis, J. A. and Thomson, D. S.: (An automated fluorimetric assay for the rapid determination of histamine in biological fluids. Life Sci. 12, 327, 1973).

[2] = tested on: slow reacting substance of anaphylaxis (SRS-A), isolated guinea pig ileum; test: SRS-A Antagonism on Guinea Pig Ileum; settings: isolated guinea pig ileum strips; Tyrode's solution with atropine 5×10^-7 M and mepyramine 10^-6 M; rat SRS-A; read-out: Approximate concentration to give a 50% inhibition of a less than maximal response to SRS-A
Description: as §1
(b) antagonise the spasmogenic effects of slow reacting substance of anaphylaxis, SRS-A, on isolated guinea pig ileum.
as §2
The compounds have been evaluated as direct antagonists of slow reacting substance of anaphylaxis (SRS-A) by assay using the isolated guinea pig ileum.
SRS-A rat was obtained from the peritoneal cavity of the rat after passive peritoneal anaphylaxis by a method based on that of R. P. Orange, D. J. Stechschulte and K. F. Austen, J. Immunology, 105, 1087 (1970) as described by J. W. Ross, H. Smith and B. A. Spicer 1976, Increased vascular permeability during passive peritoneal anaphylaxis in the rat. Int. Arch. Allergy appl. 51, 226. The sensitising serum containing antibody was produced in rats as described by J. W. Ross et. al., ibid.
2 ml of a 1 in 5 dilution of the sensitising serum was injected by the peritoneal route into recipient rats and after 2 hours 5 ml of Tyrode's solution containing 0.4 mg/ml ovalbumin (Sigma Grade III) and 50 μg/ml heparin was injected by the same route. Five minutes after challenge the rats were stunned and bled and the peritoneal fluids collected into polycarbonate tubes in ice. After centrifugation at 150 g. for five minutes the supernatants were combined, heated in a boiling water bath for five minutes, cooled and stored at -20° C. The combined peritoneal fluids contained SRS-A and were used in the antagonism studies.
The SRS-A arrays were carried out on isolated strips of guinea pig ileum in Tyrode's solution containing atropine 5×10^-7 M and mepyramine 10^-6 M as described by W. E. Brocklehurst, J. Physiology, 151, 416 (1960).
The activity of the antagonists was determined by their ability to reduce submaximal responses induced by SRS-A. The antagonists were added to the 4 ml bath in 0.1 ml volumes in aqueous solution half a minute before the addition of SRS-A and were present during induced contraction.

Structure (SMILES)	Histamine concentration in peritoneal fluid as % of mean of controls ([1]; 2 × 10^-5 M injected i.p.)	Dye concentration in peritoneal fluid as % of mean of controls ([1]; 2 × 10^-5 M injected i.p.)	Histamine concentration in peritoneal fluid as % of mean of controls ([1]; 2 × 10^-6 M injected i.p.)	Dye concentration in peritoneal fluid as % of mean of controls ([1]; 2 × 10^-6 M injected i.p.)	Histamine concentration in peritoneal fluid as % of mean of controls ([1]; 2 × 10^-7 M injected i.p.)	Dye concentration in peritoneal fluid as % of mean of controls ([1]; 2 × 10^-7 M injected i.p.)	IC50 [2] [nM]	Histamine concentration in peritoneal fluid as % of mean of controls ([1]; 2 × 10^-8 M injected i.p.)	Dye concentration in peritoneal fluid as % of mean of controls ([1]; 2 × 10^-8 M injected i.p.)
CCCc1c(OCCCOc2ccc3c(c2)C(=O)c2nn[nH]c2C3=O)ccc(C(C)=O)c1O [Example 1, 6-[3-(4-Acetyl-3-hydroxy-2-n-propylphenoxy)propoxy]4,9-dihydro-4,9-dioxo-1H-naphtho[2,3-d]-v-triazole]	10 ± 1 % of mean of controls	32 ± 5 % of mean of controls	27 ± 8 % of mean of controls	58 ± 8 % of mean of controls	57 ± 11 % of mean of controls	63 ± 5 % of mean of controls	~400		
CCCc1c(OCCCOc2cccc3c2C(=O)c2nn[nH]c2C3=O)ccc(C(C)=O)c1O [Example 3, 5-[3-(4-Acetyl-3-hydroxy-2-n-propylphenoxy)-propoxy]4,9-dihydro-4,9-dioxo-1H-naphtho[2,3-d]-v-triazole]	25 ± 3 % of mean of controls	57 ± 4 % of mean of controls	62 ± 11 % of mean of controls	94 ± 8 % of mean of controls			1000 to 10000		
CCCc1c(OCC(O)COc2ccc3c(c2)C(=O)c2nn[nH]c2C3=O)ccc(C(C)=O)c1O (centres unmarked) [Example 4, 6-[3-(4-Acetyl-3-hydroxy-2-n-propylphenoxy)2-hydroxypropoxy]-4,9-dihydro-4,9-dioxo-1H-naphtho[2,3-d]-v-triazole]					38 ± 4 % of mean of controls	58 ± 4 % of mean of controls	100 to 250	64 ± 11 % of mean of controls	72 ± 11 % of mean of controls
